Assay results as given in ChEMBL document CHEMBL2203247, “Ribonuclease-Activated Cancer Prodrug” (ACS Med Chem Lett, 2012).

Tests used:
[1] = system: MCF7; experiment: Antiproliferative activity against human MCF7 cells assessed as incorporation of [methyl-3H]thymidine into cellular DNA in serum free medium in presence of 6.2 ug/mL RNase 1; format: functional, cell-based
[2] = system: MCF7; experiment: Antiproliferative activity against human MCF7 cells assessed as incorporation of [methyl-3H]thymidine into cellular DNA in serum free medium in absence of 6.2 ug/mL RNase 1; format: functional, cell-based
[3] = Prodrug stability assessed as 4-hydroxytamoxifen release at 40 uM in serum free medium in absence of RNase 1; format: ADME
[4] = Prodrug stability assessed as 4-hydroxytamoxifen release at 40 uM in pH 7.4 ribonuclease free 0.10 M sodium phosphate buffer containing NaCl and in absence of RNase 1; format: physicochemical; conditions: pH 7.4, 40 µM
[5] = Prodrug stability assessed as compound degradation at 37 degC after 11 hrs in absence of ribonuclease 1 at pH 6.0 by HPLC analysis; format: physicochemical; conditions: buffer, pH 6, 11 h
[6] = molecular target: T1, Ribonuclease pancreatic (Homo sapiens, UniProt P07998); experiment: Prodrug activation assessed as half life for ribonuclease 1 mediated 4-hydroxytamoxifen release in MES-NaOH buffer at pH 6.0 by HPLC analysis
T1 sequence (P07998 whole entry): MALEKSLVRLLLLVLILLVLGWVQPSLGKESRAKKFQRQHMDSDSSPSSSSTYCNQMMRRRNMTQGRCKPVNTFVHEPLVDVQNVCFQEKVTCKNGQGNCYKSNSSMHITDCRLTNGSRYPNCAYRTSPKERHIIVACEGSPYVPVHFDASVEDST

t1/2 [3] [h]	t1/2 [4] [h]	Drug degradation [5] [%]	t1/2 [6] [h]	SMILES	IC50 [1] [µM]	IC50 [2] [µM]
–	–	–	–	CCC(=C(c1ccc(O)cc1)c1ccc(OCCN(C)C)cc1)c1ccccc1	2.7	2.7
9	9.4	< 6	4	CC/C(=C(/c1ccc(OCCN(C)C)cc1)c1ccc(OP(=O)(O)O[C@H]2[C@@H](O)[C@H](n3ccc(=O)[nH]c3=O)O[C@@H]2CO)cc1)c1ccccc1	5.2	16.7
